Experiments:
Assay in all cases: relative viability (nuclei count vs DMSO), 5 days (fraction); higher = more cells survive
IMD-0354 + Tozasertib = compound: O=C(Nc1cc(C(F)(F)F)cc(C(F)(F)F)c1)c1cc(Cl)ccc1O [IMD-0354] + Cc1cc(Nc2cc(N3CCN(C)CC3)nc(Sc3ccc(NC(=O)C4CC4)cc3)n2)n[nH]1 [Tozasertib] (partner 0.1 µM)
In short: (§1)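 The day after seeding in 1536-well plates, lung cancer cell lines were treated by pin tool with a single drug, or with a fixed anchor-drug dose together with five library-drug doses (not always all listed) in √10 steps. After 5 days, a combined fix-and-stain solution (final 0.05% Triton X-100, 1% formaldehyde, 1 ug/ml Hoechst) was added. Nuclei counted on 4× images gave relative viability as treated counts over vehicle counts, reported as the median of duplicate plates.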

IMD-0354 + Olaparib = compound: O=C(Nc1cc(C(F)(F)F)cc(C(F)(F)F)c1)c1cc(Cl)ccc1O [IMD-0354] + O=C(c1cc(Cc2n[nH]c(=O)c3ccccc23)ccc1F)N1CCN(C(=O)C2CC2)CC1 [Olaparib] (partner 8 µM)
In short: as §1

CX-5461 + Foretinib = compound: Cc1cnc(CNC(=O)c2c(=O)c3ccc(N4CCCN(C)CC4)nc3n3c2sc2ccccc23)cn1 [CX-5461] + COc1cc2c(Oc3ccc(NC(=O)C4(C(=O)Nc5ccc(F)cc5)CC4)cc3F)ccnc2cc1OCCCN1CCOCC1 [Foretinib] (partner 0.25 µM)
In short: as §1

CX-5461 + Pictilisib = compound: Cc1cnc(CNC(=O)c2c(=O)c3ccc(N4CCCN(C)CC4)nc3n3c2sc2ccccc23)cn1 [CX-5461] + CS(=O)(=O)N1CCN(Cc2cc3nc(-c4cccc5[nH]ncc45)nc(N4CCOCC4)c3s2)CC1 [Pictilisib] (partner 1 µM)
In short: as §1

Cell Line	relative viability (IMD-0354 + Tozasertib; first compound 0.04 µM)	relative viability (IMD-0354 + Tozasertib; first compound 0.1265 µM)	relative viability (IMD-0354 + Tozasertib; first compound 0.4 µM)	relative viability (IMD-0354 + Tozasertib; first compound 1.265 µM)	relative viability (IMD-0354 + Tozasertib; first compound 4 µM)	relative viability (IMD-0354 + Olaparib; first compound 0.04 µM)	relative viability (IMD-0354 + Olaparib; first compound 0.1265 µM)	relative viability (IMD-0354 + Olaparib; first compound 0.4 µM)	relative viability (IMD-0354 + Olaparib; first compound 1.265 µM)	relative viability (IMD-0354 + Olaparib; first compound 4 µM)	relative viability (CX-5461 + Foretinib; first compound 0.01 µM)	relative viability (CX-5461 + Foretinib; first compound 0.03162 µM)	relative viability (CX-5461 + Foretinib; first compound 0.1 µM)	relative viability (CX-5461 + Foretinib; first compound 0.3162 µM)	relative viability (CX-5461 + Foretinib; first compound 1 µM)	relative viability (CX-5461 + Pictilisib; first compound 0.01 µM)	relative viability (CX-5461 + Pictilisib; first compound 0.03162 µM)	relative viability (CX-5461 + Pictilisib; first compound 0.1 µM)	relative viability (CX-5461 + Pictilisib; first compound 0.3162 µM)	relative viability (CX-5461 + Pictilisib; first compound 1 µM)
RERF-LC-KJ	0.565	0.644	0.411	0.274	0.265	1.08	0.969	0.415	0.169	0.229	0.893	0.964	0.998	0.765	0.815	0.466	0.601	0.565	0.538	0.5
A-427	0.204	0.211	0.232	0.137	0.148	0.847	0.809	0.494	0.128	0.15	1.12	1.2	1.13	–	1.04	0.78	0.868	0.732	–	0.584
NCI-H441	0.79	0.667	0.397	0.295	0.24	0.537	0.541	0.604	0.186	0.194	0.88	1.02	0.615	0.889	0.778	0.376	0.515	0.505	0.382	0.339
NCI-H1703	–	–	–	–	–	0.405	0.468	0.358	0.108	0.0868	0.359	0.311	0.357	0.363	0.28	0.258	0.243	0.239	0.284	0.221
NCI-H1792	–	–	–	–	–	0.393	0.389	0.236	0.21	0.172	–	–	–	–	–	0.294	0.296	0.277	0.276	0.281
Calu-6	–	–	–	–	–	0.555	0.57	0.428	0.138	0.111	0.837	0.925	0.807	0.844	0.698	1	1.04	0.817	0.845	0.409
SW 1573	0.182	0.16	0.175	0.0971	0.0737	0.537	0.467	0.264	0.0858	0.0862	0.887	0.83	0.98	0.397	0.531	0.56	0.471	0.461	0.59	0.452
PC-3 [JPC-3]	1	0.707	0.572	0.567	0.312	1.25	1.16	0.839	0.374	0.38	1.07	1.06	0.984	0.986	1.01	0.82	0.857	0.829	0.697	0.75
EMC-BAC-2	0.276	0.301	0.24	0.296	0.224	0.456	0.511	0.327	0.226	0.26	0.988	1.13	1.06	0.928	0.885	0.555	0.565	0.562	0.414	0.353

— the supplement of paper PMC10307832
